Reference: patent US10973920B2, “Saccharide derivative of a toxic payload and antibody conjugates thereof” (priority 2014, dated 2021)
“And” between values parts separate entries of the source, which are not always exact repeats. Equal entries are not always repeated. Where a SMILES comes first, the peptide text is derived from it. [ ]: non-standard residue; d: D form. The star is where a group is joined. X1 = C[C@@H](N*)[C@@H](O[C@@H]1O[C@H](CO)[C@H](O)[C@H](O)[C@H]1O)c1ccccc1; Dolaproine = CO[C@@H]([C@@H]1CCCN1)[C@@H](C)C(=O)O; Dil = CC[C@H](C)[C@H](NC)[C@@H](CC(=O)O)OC; X2 = C[C@@H](N*)[C@@H](O)c1ccccc1; NMeV = CN[C@H](C(=O)O)C(C)C

System: cancer cells (SKOV-3 and HSC-2)
Experiment: Cytotoxicity to cancer cells, PrestoBlue cell viability, 96 h
Details: for IC50: concentration wherein cancer cell viability falls to 50%, cell line not given
Protocol: Human ovarian cancer cell line SKOV-3 (ATCC, Manassas, Va., USA) and head-and-neck squamous cell carcinoma cell line HSC-2 (Japanese Collection of Research Bioresources, Osaka, Japan) were grown according to the suppliers' recommendations. Log phase cultures were collected and cells were seeded onto 96-well plates and incubated for 24 h. Serial dilutions of test molecules were added to cells and cultures were incubated further for 96 h. Cell viability was evaluated using PrestoBlue cell viability reagent (Life Technologies, Carlsbad, Calif., USA) according to the manufacturer's instructions. Cells were incubated for 2 h, and dye reduction was measured by absorbance at 570 nm. The compounds were assayed 1-2 times in triplicate.
The results are expressed in Table 1 as IC50 values.

SMILES: CC[C@H](C)[C@@H]([C@@H](CC(=O)N1CCC[C@H]1[C@H](OC)[C@@H](C)C(=O)N[C@H](C)[C@@H](O[C@@H]1O[C@H](CO)[C@H](O)[C@H](O)[C@H]1O)c1ccccc1)OC)N(C)C(=O)[C@@H](NC(=O)[C@@H](NC)C(C)C)C(C)C [MMAG, O-β-D-galactopyranosylmonomethylauristatin E] (H-[NMeV]V[Dil][Dolaproine]-X1)
- IC50: > 100 nM
- Cytotoxicity (in words) (concentrations up to 100 nM): relatively non-toxic

SMILES: CC[C@H](C)[C@@H]([C@@H](CC(=O)N1CCC[C@H]1[C@H](OC)[C@@H](C)C(=O)N[C@H](C)[C@@H](O)c1ccccc1)OC)N(C)C(=O)[C@@H](NC(=O)[C@@H](NC)C(C)C)C(C)C [MMAE, monomethylauristatin E] (H-[NMeV]V[Dil][Dolaproine]-X2)
- IC50: ~10 nM and 10 nM
